Measured values reported in ChEMBL document CHEMBL4152365, “Discovery of DS-6930, a potent selective PPARγ modulator. Part I: Lead identification” (Bioorg Med Chem, 2018).
Converted amounts (≈) assume the structure as drawn. The source made the active and inactive calls. The rule behind the calls is not given here.

Columns and labels:
[1] = target: T1, Peroxisome proliferator-activated receptor alpha (Homo sapiens, UniProt Q07869); assay: Agonist activity at recombinant human GAL4-DBD fused PPARalpha LBD expressed in COS7 cells after 24 hrs by luciferase reporter gene assay; assay type: cell-based
T1 sequence (Q07869 whole entry): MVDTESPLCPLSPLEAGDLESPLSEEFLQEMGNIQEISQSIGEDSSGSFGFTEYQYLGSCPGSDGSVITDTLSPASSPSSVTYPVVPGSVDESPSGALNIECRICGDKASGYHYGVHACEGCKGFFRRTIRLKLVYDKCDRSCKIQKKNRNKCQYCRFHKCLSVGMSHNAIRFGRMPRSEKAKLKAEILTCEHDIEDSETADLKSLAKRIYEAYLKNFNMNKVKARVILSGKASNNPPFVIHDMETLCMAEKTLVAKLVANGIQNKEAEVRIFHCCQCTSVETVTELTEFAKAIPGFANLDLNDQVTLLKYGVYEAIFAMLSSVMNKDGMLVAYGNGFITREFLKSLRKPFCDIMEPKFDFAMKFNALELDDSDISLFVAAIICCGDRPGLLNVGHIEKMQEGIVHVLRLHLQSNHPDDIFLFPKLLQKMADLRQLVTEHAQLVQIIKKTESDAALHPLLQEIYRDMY

[2] = Metabolic stability in human liver microsomes after 0.5 hrs; assay type: ADME, microsome; settings: read-out: Stability
[3] = Plasma concentration in hyperglycemic KK/Ta mouse at 30 mg/kg/day, po administered through diet for 3 days measured on day 3 post last dose; assay type: ADME, organism-based
[4] = tested on: Mus musculus; assay: Glucose-lowering effect in hyperglycemic KK/Ta mouse assessed as reduction in plasma glucose level at 30 mg/kg/day, po administered through diet for 3 days relative to control; assay type: functional; parameters: scale not given: the % may be the effect or the level left
[5] = target: T2, Peroxisome proliferator-activated receptor alpha (Homo sapiens) (UniProt Q07869); assay: Agonist activity at recombinant human GAL4-DBD fused PPARalpha LBD expressed in COS7 cells at 10 uM after 24 hrs by luciferase reporter gene assay relative to 2-(4-tert-Butylphenoxy)-3-[4-[2-[(4-pyridin-2-ylbenzoyl)amino]ethoxy]; assay type: cell-based
T2 sequence (whole entry): T1 sequence (Q07869 whole entry)

[6] = Aqueous thermodynamic solubility of the compound in pH 6.8 solution up to 4 hrs by HPLC-UV analysis; assay type: physicochemical; settings: read-out: Therm_solubility
[7] = tested on: Mus musculus; assay: Toxicity in hyperglycemic KK/Ta mouse assessed as body weight gain at 30 mg/kg/day, po administered through diet for 3 days relative to control; assay type: organism-based; settings: in vivo, 72 h
[8] = 1-octanol/PBS distribution co-efficient, log D of the compound at […] at pH 7.4 after 30 mins by HPLC-MS/MS analysis; assay type: physicochemical
[9] = target: T3, Peroxisome proliferator-activated receptor delta (Homo sapiens) (UniProt Q03181); assay: Agonist activity at PPARdelta (unknown origin) at 10 uM
T3 sequence (whole entry): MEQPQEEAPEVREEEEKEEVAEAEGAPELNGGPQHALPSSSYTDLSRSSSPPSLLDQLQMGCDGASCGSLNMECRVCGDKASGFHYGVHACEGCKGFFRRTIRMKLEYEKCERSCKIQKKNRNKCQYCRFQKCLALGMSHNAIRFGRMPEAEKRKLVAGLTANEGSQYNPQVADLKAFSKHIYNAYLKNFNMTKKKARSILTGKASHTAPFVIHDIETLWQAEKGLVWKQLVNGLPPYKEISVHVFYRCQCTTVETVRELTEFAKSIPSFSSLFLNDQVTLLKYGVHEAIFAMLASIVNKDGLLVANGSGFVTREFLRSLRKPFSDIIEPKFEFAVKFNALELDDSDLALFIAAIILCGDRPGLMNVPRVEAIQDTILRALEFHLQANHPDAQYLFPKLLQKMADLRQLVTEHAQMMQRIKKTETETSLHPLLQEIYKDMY

[10] = target: T4, Peroxisome proliferator-activated receptor gamma (Homo sapiens) (UniProt P37231); assay: Agonist activity at recombinant human GAL4-DBD fused PPARgamma LBD expressed in COS7 cells at 10 uM after 24 hrs by luciferase reporter gene assay relative to rosiglitazone; assay type: cell-based
T4 sequence (whole entry): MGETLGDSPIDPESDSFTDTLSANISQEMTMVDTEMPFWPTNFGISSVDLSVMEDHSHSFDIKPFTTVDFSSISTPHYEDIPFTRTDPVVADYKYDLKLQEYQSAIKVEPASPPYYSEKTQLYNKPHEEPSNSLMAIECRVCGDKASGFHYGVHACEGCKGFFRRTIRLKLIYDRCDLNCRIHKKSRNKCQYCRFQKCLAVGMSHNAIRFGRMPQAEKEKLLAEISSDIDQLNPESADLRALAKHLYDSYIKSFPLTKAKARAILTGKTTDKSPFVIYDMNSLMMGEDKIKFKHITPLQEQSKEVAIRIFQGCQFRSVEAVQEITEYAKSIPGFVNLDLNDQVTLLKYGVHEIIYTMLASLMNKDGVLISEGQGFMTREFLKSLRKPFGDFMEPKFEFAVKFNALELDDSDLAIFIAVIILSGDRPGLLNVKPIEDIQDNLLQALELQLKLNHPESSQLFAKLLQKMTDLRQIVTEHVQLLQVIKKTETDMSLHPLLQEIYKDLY

[11] = target: T5, Peroxisome proliferator-activated receptor gamma (Homo sapiens, UniProt P37231); assay: Agonist activity at recombinant human GAL4-DBD fused PPARgamma LBD expressed in COS7 cells after 24 hrs by luciferase reporter gene assay; assay type: cell-based
T5 sequence (P37231 whole entry): T4 sequence (whole entry)

Row | SMILES | EC50 [1] [nM] | remaining at 0.5 h [2] [%] | concentration at 72 h [3] [ng/mL] | Activity [4] [%] | Emax [5] [%] | solubility thermodynamic at 4 h [6] [µg/mL] | Activity [7] [%] | logD at 0.5 h [8] | Activity [9] | Emax [10] [%] | EC50 [11] [nM]
1 | Cn1c(COc2cccc(C(=O)O)c2)nc2ccc(Oc3cccc(OC(F)(F)F)c3)cc21 | > 10000 | 98 | 370 | 41.9 | 17 | 0.9 (≈ 1.96 µM) | 5.3 | 3.3 | inactive | 69 | 113
2 | Cc1cccc(Oc2ccc3nc(COc4cccc(C(=O)O)c4)n(C)c3c2)c1 | > 10000 | 69 | 90 | 56.9 | 19 | 3.8 (≈ 9.78 µM) | 3.2 | 2.3 | inactive | 76 | 79
3 | COc1ccc(Oc2ccc3nc(COc4cccc(C(=O)O)c4)n(C)c3c2)cc1 | > 10000 | 100 |  |  | 7 | 9.3 (≈ 23 µM) |  | 1.8 | inactive | 71 | 307
4 | Cn1c(COc2cccc(C(=O)O)c2)nc2ccc(Oc3ccccc3F)cc21 | > 10000 |  |  |  | 21 | 12 (≈ 30.6 µM) |  | 1.7 | inactive | 125 | 1430
5 | CCOc1cccc(Oc2ccc3nc(COc4cccc(C(=O)O)c4)n(C)c3c2)c1 | > 10000 |  |  | 22 | 37 |  | 3.3 | 2.4 | inactive | 56 | 40
6 | Cc1ccccc1Oc1ccc2nc(COc3cccc(C(=O)O)c3)n(C)c2c1 | > 10000 | 62 | 100 | 26.9 | 16 | 2.2 (≈ 5.66 µM) | 3.7 | 2.4 | inactive | 80 | 56
7 | COc1ccccc1Oc1ccc2nc(COc3cccc(C(=O)O)c3)n(C)c2c1.Cl | > 10000 | 74 |  |  | 4 | 12 |  | 1.3 | inactive | 60 | 474
8 | Cl.Cn1c(COc2cccc(C(=O)O)c2)nc2ccc(Oc3ccccc3)cc21 |  | 100 |  |  |  | 2 |  | 1.8 | inactive | 90 | 
9 | Cn1c(COc2cccc(C(=O)O)c2)nc2ccc(Oc3ccc(Cl)cc3)cc21 | > 10000 |  |  | 34.4 | 8 | 2 (≈ 4.89 µM) | 4.1 | 2.6 | inactive | 62 | 126
10 | Cn1c(COc2cccc(C(=O)O)c2)nc2ccc(Oc3ccc(F)cc3)cc21 | > 10000 |  | 320 | 56.7 | 29 | 19 (≈ 48.4 µM) | 3.4 | 2 | inactive | 75 | 122
11 | Cn1c(COc2cccc(C(=O)O)c2)nc2ccc(Oc3cccc(F)c3)cc21 | > 10000 | 98 | 1740 | 52.1 | 22 | 2.2 (≈ 5.61 µM) | 3.2 | 2 | inactive | 75 | 201
12 | Cl.Cn1c(COc2cccc(C(=O)O)c2)nc2ccc(Oc3cccc(Cl)c3)cc21 |  | 90 | 190 | 59.6 | 69 |  | 2.8 | 2.7 | inactive | 103 | 86
13 | Cl.Cn1c(COc2cccc(C(=O)O)c2)nc2ccc(Oc3cccc(C(F)(F)F)c3)cc21 |  | 85 | 90 | 45.1 | 56 |  | 3.8 | 2.8 | inactive | 81 | 23
14 | Cn1c(COc2cccc(C(=O)O)c2)nc2ccc(Oc3ccc(F)cc3F)cc21 | > 10000 | 100 | 370 | 37.6 | 17 | 11 (≈ 26.8 µM) | 3.7 | 1.9 |  | 77 | 143
15 | COc1cccc(Oc2ccc3nc(COc4cccc(C(=O)O)c4)n(C)c3c2)c1 | > 10000 | 68 |  |  | 30 | 5.4 (≈ 13.4 µM) |  | 1.8 | inactive | 92 | 235
